The text below walks through data of publication PMC7059089, “Bioguided Isolation and Structure Identification of Acetylcholinesterase Enzyme Inhibitors from Drynariae Rhizome” (Journal of Analytical Methods in Chemistry, 2020).

This experiment deals with T1, AChE (acetylcholinesterase) (Electrophorus electricus, UniProt O42275).
T1 construct: obtained from the head of an electric eel; purchased Shanghai Source Biotech Co. Ltd. (Shanghai, China); host or cells: electric eel tissue (head)
T1 sequence (O42275 24-633): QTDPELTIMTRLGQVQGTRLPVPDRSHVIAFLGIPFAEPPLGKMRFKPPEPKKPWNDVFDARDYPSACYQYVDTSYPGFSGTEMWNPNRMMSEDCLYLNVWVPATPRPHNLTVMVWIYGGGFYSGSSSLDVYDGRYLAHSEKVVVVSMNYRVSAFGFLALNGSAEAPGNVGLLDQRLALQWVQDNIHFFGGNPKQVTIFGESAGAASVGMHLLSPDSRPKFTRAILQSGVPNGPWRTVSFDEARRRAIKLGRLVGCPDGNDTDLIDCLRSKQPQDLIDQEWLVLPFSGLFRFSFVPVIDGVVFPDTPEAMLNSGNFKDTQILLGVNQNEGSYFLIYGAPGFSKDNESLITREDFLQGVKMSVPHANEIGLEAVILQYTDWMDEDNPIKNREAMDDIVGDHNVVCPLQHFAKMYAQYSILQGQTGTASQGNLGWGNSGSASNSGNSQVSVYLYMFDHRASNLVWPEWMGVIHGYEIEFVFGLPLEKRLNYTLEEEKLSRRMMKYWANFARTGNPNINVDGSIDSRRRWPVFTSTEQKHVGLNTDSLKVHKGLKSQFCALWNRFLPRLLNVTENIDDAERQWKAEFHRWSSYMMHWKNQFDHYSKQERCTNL
The experiment is described as follows: biochemical. To be noted: UPLC-MS/MS assay, ACh-I substrate, 37°C, 25 min, pH 8.0, n = 6, ± SD; read-out: IC50 against AChE. From the text: AChE (acetylcholinesterase, obtained from the head of an electric eel, 500 U), iodized acetylcholine (ACh-I, purity > 98.0%), iodized choline (Ch-I, purity > 98.0%), and Tris-HCl buffer (1 mol/L, pH 8.0) were all purchased from Shanghai Source Biotech Co. Ltd. (Shanghai, China). […] UPLC-grade acetonitrile was obtained from Fisher (Fair Lawn, NJ, USA). Water was purified by redistillation and a Milli-Q® ultrapure water system (Millipore, Bedford, MA, USA). Other chemicals and solvents used were of analytical grade.
AChE inhibition activities of the analytes were determined in vitro by monitoring the transformation from a substrate (ACh-I) to the product (Ch-I) catalyzed AChE, and Ch-I was quantified with UPLC-MS/MS to access the AChE activity. The reaction was conducted in a 100 μL mixture, consisting of 50 μL AChE solution (0.5 U/mL), 45 μL ACh-I solution (400 μg/mL), and 5 μL tested sample or blank Tris solution which were all dissolved in Tris buffer (pH 8.0). The mixture was incubated at 37°C in a thermostatic water bath for 25 min and then terminated by 500 μL acetonitrile at 0°C immediately. The terminal solution was centrifuged at 20,000g for 15 min, and the supernatant was used for UPLC-MS/MS analysis.
The […] inhibition was calculated as follows:(1) inhibition %=Cb−Cs/Cb∗100%. where Cb means the Ch-I concentration incubated without AChE inhibitor and Cs means the Ch-I concentration incubated with inhibitor. The inhibitory activities of the AChE inhibitors were assessed by the IC50 values of tested compounds. Galanthamine was selected as a positive control.
Liquid chromatography analysis was accomplished on an ACQUITY UPLC™ system (Waters Corp., Milford, MA, USA). The chromatographic separation was carried out using an ACQUITY UPLCTM BEH C18 column (2.1 × 50 mm, 1.7 μm) at 30°C. The isocratic elution mobile phase consisted of 0.5% acetic acid (A) and acetonitrile (B) (40 : 60) to guarantee the peak shape of Ch-I.
A Waters® Micromass® Quattro Premier™ XE triple-quadrupole tandem mass spectrometer equipped with an electrospray ionization interface (TQ-ESI) was used for mass spectrometric detection. The positive ESI source operation optimal parameters were capillary voltage 3.0 kV, extractor voltage 3.00 V, skimmer 25.0 V, fragmentor 35 V, octopole Rf peak 3000 v, source temperature 120°C, and desolvation temperature 300°C. Nitrogen was used as the desolvation gas and cone gas at a flow of 600 L/h and 50 L/h, respectively. Argon was used as the collision gas at a pressure of approximately 2.61 × 10^−3 mbar. A multiple reaction monitoring (MRM) mode was used to quantify Ch-I, and the fragments of 104.34 Th and 58.53 Th were selected as the parent ion and daughter ion to obtain accurate quantitation in the mixture containing herb extract. The MS scan rate spectrum was 5000 amu/s, dwell time 5 ms, and m/z range 0–300 Th. All data were acquired and analyzed by Mass Lynx™ NT 4.1 software with the Quan Lynx™ program (Waters, Milford, MA, USA).
The reaction procedure was conducted with reference to Liu's report; moreover, the enzyme constants, steady-state kinetics, reaction temperature, reaction time, substrate concentration, and AChE concentration were investigated and optimized to guarantee the utilization. […] The concentration of AChE in Liu's report was 3.470 U/mL.
What is called IC50 is the concentration that inhibits the measured activity by half. Consider `O=c1c(O[C@@H]2O[C@H](CO)[C@@H](O)[C@H](O)[C@H]2O)c(-c2ccc(O)cc2)oc2cc(O)cc(O)c12` [Astragalin, astragalin], for which the IC50 worked out at 18.2 ± 2.33 µM.

Turning to `O=C1C[C@@H](c2ccc(O)c(O)c2)Oc2cc(O)cc(O)c21` [Eriodictyol, eriodictyol], the IC50 amounted to 7.19 ± 0.62 µM.

Consider `O=c1cc(-c2ccc(O)c(O)c2)oc2cc(O)cc(O)c12` [Luteolin, luteolin], for which the IC50 amounted to 17.3 ± 0.23 µM.

With `O=c1cc(-c2ccc(O)c(O)c2)oc2cc(O[C@@H]3O[C@H](CO)[C@H](O)[C@H](O)[C@H]3O)cc(O)c12` [Luteolin-7-O-β-D-glucoside, luteolin-7-O-β-D-glucoside], the IC50 was 17.1 ± 1.02 µM.

In the case of `O=C1C[C@@H](c2ccc(O)cc2)Oc2cc(O)cc(O)c21` [Naringenin, naringenin], the IC50 is 3.81 ± 0.21 µM.

For the molecule `C[C@@H]1O[C@@H](O[C@H]2[C@H](Oc3cc(O)c4c(c3)O[C@H](c3ccc(O)cc3)CC4=O)O[C@H](CO)[C@@H](O)[C@@H]2O)[C@H](O)[C@H](O)[C@H]1O` [Naringin, naringin], the IC50 worked out at 26.4 ± 1.17 µM.

As for `C[C@@H]1O[C@@H](O[C@H]2[C@H](Oc3cc(O)c4c(c3)O[C@H](c3ccc(O)c(O)c3)CC4=O)O[C@H](CO)[C@@H](O)[C@@H]2O)[C@H](O)[C@H](O)[C@H]1O` [Neoeriocitrin, neoeriocitrin], the IC50 turned out to be 22.5 ± 1.25 µM.
